Measured values from patent US12358923B2, “Seminaphthofluorophore-selenium probes for thioredoxin reductase” (Portland State University, priority 2019, dated 2025).

Experiments:
[1] = Maximum absorbance and emission wavelengths of the seminaphthofluorophore scaffolds; assay type: physicochemical; details: seminaphthofluorophore scaffold (without the diselenide moiety/moieties) of the compound; 10% DMSO, 100 mM phosphate buffer, pH 7.4
Protocol: Initial absorbance measurements were performed on a Cary Eclipse™ 50 Bio UV-Vis spectrophotometer. Fluorescence measurements were performed on a Cary Eclipse™ fluorescence spectrophotometer (Agilent Technologies, Santa Clara, CA).

[2] = Turn-on response of probe on reduction of the diselenide with dithiothreitol (DTT); details: 10 μM probe
Protocol: To determine if determine if probe 1 would elicit a turn-on response, dithiothreitol (DTT) was used to reduce the diselenide into the selenolate. DTT is known to reduce both disulfides and diselenides. Excitation and emission spectra were obtained for a 10 μM solution of 1 in 0.3% DMSO, 0.2% NP-40 (nonyl phenoxypolyethoxylethanol), 1 mM EDTA, and 50 mM Tris buffer, pH 7.4, initially without DTT and then with an equimolar amount of DTT (FIG. 1).
To investigate the reactivity and optical responses of probe 1, an aqueous solution of 10 μM probe 1, 10 μM DTT in 0.3% DMSO, 0.2% NP-40, 1 mM EDTA and 50 mM Tris buffer, pH 7.4 was prepared. DTT is a powerful reducing agent for both diselenides and disulfides and might be expected to react with probe 1 by a mechanism similar to the TrxR1 enzyme. […] Excitation at 531 nm afforded emission with a λmax at 580 nm, as expected for the formation of compound 2, which was also monitored by HPLC-MS.

[3] = target: T1, TrxR1 from rat liver (Rattus norvegicus, UniProt O89049); test: TrxR1 enzymatic assay and kinetic study (fluorescence increase, NADPH depletion); assay type: biochemical
T1 construct: from tissue; host or cells: rat liver
T1 sequence (O89049 1-499): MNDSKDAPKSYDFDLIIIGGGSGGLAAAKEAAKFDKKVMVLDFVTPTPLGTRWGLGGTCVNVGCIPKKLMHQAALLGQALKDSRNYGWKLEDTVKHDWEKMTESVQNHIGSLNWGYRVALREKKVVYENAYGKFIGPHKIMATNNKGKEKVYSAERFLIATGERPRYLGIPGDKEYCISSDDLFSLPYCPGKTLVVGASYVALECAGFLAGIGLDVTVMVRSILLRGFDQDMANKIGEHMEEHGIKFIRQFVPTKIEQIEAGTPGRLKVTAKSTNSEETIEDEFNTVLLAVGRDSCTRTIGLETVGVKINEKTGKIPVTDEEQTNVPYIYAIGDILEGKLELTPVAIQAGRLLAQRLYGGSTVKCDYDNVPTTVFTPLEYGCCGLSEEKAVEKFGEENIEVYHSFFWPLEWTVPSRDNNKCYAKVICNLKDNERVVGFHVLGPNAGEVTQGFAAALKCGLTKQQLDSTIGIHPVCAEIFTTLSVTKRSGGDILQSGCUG
Protocol: Enzymatic assays were carried out using TrxR1 from rat liver in the presence of 20 μM probe 1, 10 mM EDTA, 0.2 mg/mL BSA, and 0.24 mM NADPH in phosphate buffer (100 mM, pH 7.4). This solution was pipetted into four different wells in a 96-well plate. 0.03, 0.06 and 0.12 units of TrxR1 were added to different reaction mixtures. Control experiments were set up by omitting either probe 1, NADPH or TrxR1 from the mixtures. After all the reagents had been mixed, the wells were immediately monitored for change in fluorescence (λex=531 nm; λem=580 nm) and NADPH absorbance (λabs,max 340 nm). TrxR1 activity was monitored via fluorescence emission increase of probe 1 (λex=531 nm; λem=580 nm) as well as the depletion of NADPH (λabs=340 nm) upon incubation. Reactions were monitored in black 96-well plates with clear bottoms using a fluorescence plate reader. NADPH and TrxR1 were both required for the conversion of probe 1 to compound 2 and the concomitant turn-on emission (FIG. 2). […] The proposed mechanism for the reaction of probe 1 in the presence of TrxR1 and NADPH is shown in Scheme 7. Nucleophilic attack of the diselenide occurs through the TrxR1 […] residue. The selenolate formed attacks the carbamate carbonyl, and an oxaselenolanone heterocycle and the fluorescent probe 2 are released.
Kinetic studies were carried out for six reaction mixtures with varying amounts (1-20 μM) of probe 1 over 20 min. Reaction mixtures were made with concentrations of: TrxR1 0.12 units, 100 mM phosphate buffer, pH 7.4; 10 mM EDTA, 0.2 mg/mL BSA and 0.24 mM NADPH. 1 was added at different concentrations in the reaction mixture: 20 μM, 10 μM, 5 μM, 3 μM, 1 μM and 0 μM. The reaction was monitored through the change in fluorescence (λex=531 nm; λem=580 nm) and a fluorescence vs time graph was plotted for each substrate concentration (FIG. 3). […] The fluorescence data also was plotted as a reaction rate vs substrate concentration graph (FIG. 4).

[4] = Selectivity against other biological thiols and ions (fluorescence response); assay type: biochemical; details: 20 μM probe, 20 minutes; 100 μM Na2S, Na2SO3, Na2SO4, Na2S2O3, Hcy, Cys or 1 mM GSH; phosphate buffer pH 7.4
Protocol: The selectivity of TrxR1 for probe 1 was evaluated against other biological thiols and ions. Probe 1, at a concentration of 20 μM, was incubated for 20 minutes with 0.12 units TrxR1, 100 μM Na2S, 100 μM Na2SO3, 100 μM Na2SO4, 100 μM Na2S2O3, 100 μM homocysteine (Hcy), 100 μM cysteine (Cys), or 1 mM glutathione (GSH) in 100 mM phosphate buffer, pH 7.4; 10 mM EDTA, 0.2 mg/mL BSA and 0.24 mM NADPH.

[5] = system: A375 melanoma cell line; test: MTS cytotoxicity assay (CellTiter 96 Aqueous One Solution); assay type: cell-based; details: Homo sapiens, A-375, A375 cells
Protocol: (§1) MTS cytotoxicity assays for probe 1 were carried out using the CellTiter 96® Aqueous One Solution Cell Proliferation Assay (Promega Corporation, Madison, WI), with A375 and SK-MEL-5 melanoma cell lines. The following treatment groups were made:
(§2) The IC50 is the probe concentration required to kill 50% of the cells in the specified time period.

[6] = system: SK-MEL-5 melanoma cell line; test: as above; assay type: cell-based; details: Homo sapiens, SK-MEL-5 cells
Protocol: as §1, §2

[7] = equimolar DTT, 0.3% DMSO, 0.2% NP-40, 1 mM EDTA, 50 mM Tris buffer, pH 7.4

With COc1cccc2ccc3c(c12)Oc1cc(NC(=O)OCC[Se][Se]CCO)ccc1C31OC(=O)c2ccccc21 (stereo not drawn) [Probe 1] the “λmax, abs (nm)” value [1] was 531 nm, the “λmax, em (nm)” value [1] was 580 nm and the “Emission λmax after addition of DTT” value ([2]; 10 μM DTT, Tris buffer pH 7.4, excitation at 531 nm, formation of compound 2) was 580 nm. The “Colour change of solution with DTT” value [2, 7] was “colorless to red”, the “Fluorescence turn-on response with DTT” value [2, 7] was “instantaneous turn-on response” and the “Time at which fluorescence intensity began to plateau” value ([3]; 20 μM probe, 0.12 units TrxR, 0.24 mM NADPH, phosphate buffer pH 7.4, λex 531 nm, λem 580 nm) was 20 min. The “Fluorescence in the absence of NADPH or TrxR” value ([3]; 20 μM probe, control omitting NADPH or TrxR1) was “no fluorescence was observed”, the Km ([3]; 1-20 μM probe, 0.12 units TrxR1, 0.24 mM NADPH, 100 mM phosphate buffer pH 7.4, 20 min) was 15.9 µM and the “Change in fluorescence with other thiols and ions compared with TrxR1” value [4] was “None afforded a significant change in fluorescence”. The IC50 ([5]; 24 hours) was 3530 nM, the IC50 ([5]; 48 hours) was 2230 nM and the IC50 ([5]; 72 hours) was 2550 nM. The IC50 ([6]; 24 hours) was 4.77 µM, the IC50 ([6]; 48 hours) was 3.1 µM and the IC50 ([6]; 72 hours) was 2.3 µM.
